According to US20260125375A1 (Pfizer Inc., priority 2022, published 2026):

Experiments:
WT CBL-B (36-427) = molecular target: T1, WT CBL-B (36-427) (Homo sapiens, UniProt Q13191); test: Surface Plasmon Resonance (SPR) assay, binding affinity and kinetics, CBL-B; settings: SPR at 10° C., biotinylated WT CBL-B (36-427) on streptavidin chip; geometric mean; read-out: CBL-B SPR Kd (nM) GMean
T1 construct: N-terminal biotinylated WT CBL-B (36-427) and C-CBL (46-435) were captured on a streptavidin (SA) coated sensor chip
Experimental: (§1) Surface Plasmon Resonance (SPR) Assay
(§2) The purpose of the SPR assay is to evaluate the binding affinity and kinetics of the compound of disclosure binding to CBL-B and C-CBL.
(§3) The binding affinity and kinetics of compound binding to CBL-B and C-CBL were measured by Surface Plasmon Resonance (SPR) using either Biacore S200, 8K or 8K+ (Cytiva, Marlborough, MA) instruments. N-terminal biotinylated WT CBL-B (36-427) and C-CBL (46-435) were captured on a streptavidin (SA) coated sensor chip to achieve approximately 5000 to 6000 RUs of surface density. Un-functionalized SA surfaces with no immobilized protein served as reference for binding kinetic analysis. All the samples were prepared in buffer consisting of 10 mM HEPES, 150 mM NaCl, 0.05% Tween-20, 5% glycerol, […], 2% DMSO, pH 7.2. The same buffer was used as the running buffer during the experiments. Compound binding kinetics were measured in either multi-cycle or single-cycle kinetic format.
(§4) Multi-cycle kinetic analysis (MCK): A two-fold, 10-point serial dilution of test compounds was set-up in a 96-well microplate (Greiner; Cat #650101) with a top concentration of either 10 μM or 100 μM. Binding kinetics was measured at 10° C. by injecting serial dilution of compounds onto both reference and CBL immobilized channels at a flow rate of 100 μL/min and association time of 90 seconds. Compound dissociation was monitored for >400 seconds during each cycle. No additional regeneration was used. DMSO calibration curve was obtained before and after compound analysis by injecting 0-4% of DMSO in assay buffer. A suitable compound with known affinity and kinetics was tested once in every experiment as a positive control to assess activity of the captured proteins on the surface.
(§5) Single-cycle kinetic analysis (SCK): A 3-fold, 6-point serial dilution of compounds was set-up in a deep 96-well microplate (Greiner Bio; Cat #780201) with the highest concentration of 1 μM (concentration range: […]). Binding kinetics was measured at 10° C. by injecting serial dilutions of compounds in increasing order onto reference as well as CBL immobilized channels at a flow rate of 100 μL/min and association time of 120 seconds. Compound dissociation was monitored for >5400 seconds. Two buffer blanks were also run in a single-cycle kinetics format before the compound run for double referencing. No additional regeneration was used. DMSO calibration curve was obtained before and after compound analysis by injecting 0-4% of DMSO in the assay buffer. A suitable compound with known affinity and kinetics was tested once in every experiment as a positive control to assess activity of the captured proteins on the surface.

C-CBL (46-435) = molecular target: T2, C-CBL (46-435) (Homo sapiens, UniProt P22681); test: Surface Plasmon Resonance (SPR) assay, binding affinity and kinetics, C-CBL; settings: SPR at 10° C., biotinylated C-CBL (46-435) on streptavidin chip; geometric mean; read-out: C-CBL SPR Kd (nM) GMean
T2 construct: N-terminal biotinylated WT CBL-B (36-427) and C-CBL (46-435) were captured on a streptavidin (SA) coated sensor chip
T2 sequence (P22681 46-435): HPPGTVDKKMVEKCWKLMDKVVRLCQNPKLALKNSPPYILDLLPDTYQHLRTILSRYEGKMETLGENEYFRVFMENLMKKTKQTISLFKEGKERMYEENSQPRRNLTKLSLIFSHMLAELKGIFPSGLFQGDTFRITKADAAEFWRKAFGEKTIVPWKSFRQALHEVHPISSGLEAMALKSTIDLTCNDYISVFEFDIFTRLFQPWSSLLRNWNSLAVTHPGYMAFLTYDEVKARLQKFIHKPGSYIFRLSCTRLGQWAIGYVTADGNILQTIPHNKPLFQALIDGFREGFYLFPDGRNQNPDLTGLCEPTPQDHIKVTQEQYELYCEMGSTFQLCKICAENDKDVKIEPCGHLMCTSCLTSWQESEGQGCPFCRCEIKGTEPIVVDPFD
Experimental: as §1, §2, §3, §4, §5

CBL-B (residues 36-427) = molecular target: T3, CBL-B (residues 36-427) (Homo sapiens, UniProt Q13191); test: Ligand Displacement Assay (LDA), HTRF competitive binding against BODIPY-labeled fluorescent tracer, CBL-B; settings: geometric mean of the number of tests, read-out: CBL-B Ki (nM) GMean
T3 construct: Purified CBL-B (residues 36-427) and C-CBL (residues 46-435) proteins from baculovirus-infected insect cells; made in house; host or cells: baculovirus-infected insect cells
Procedure, shortened: (§6)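 Insect-cell (baculovirus) protein, N-term AviTag biotinylated via BirA, captured by SA-Tb; BODIPY tracer, KD measured per protein. 3-fold serial dilutions, duplicate, […], 2% DMSO final. Ki (nM) = geomean of runs.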

C-CBL (residues 46-435) = molecular target: T4, C-CBL (residues 46-435) (Homo sapiens, UniProt P22681); test: Ligand Displacement Assay (LDA), HTRF competitive binding against BODIPY-labeled fluorescent tracer, C-CBL; settings: geometric mean of the number of tests, read-out: C-CBL Ki (nM) GMean
T4 construct: Purified CBL-B (residues 36-427) and C-CBL (residues 46-435) proteins from baculovirus-infected insect cells; made in house; host or cells: baculovirus-infected insect cells
T4 sequence (P22681 46-435): T2 sequence (P22681 46-435)
Procedure, shortened: as §6

Compound	Kd (WT CBL-B (36-427))	Kd (C-CBL (46-435))	Ki (CBL-B (residues 36-427))	Ki (C-CBL (residues 46-435))
C[C@@H]1CN([C@@H](C)c2nc(C(F)(F)F)cc3c(-c4cccc(C5(Cc6nncn6C)COC5)c4)n[nH]c23)CCO1 (single isomer, unassigned) [Example D49]	5.9 nM	82 nM	17.8 nM	104 nM
C[C@@H]1CN([C@H](C)c2nc(C(F)(F)F)cc3c(-c4cccc(C5(Cc6nncn6C)COC5)c4)n[nH]c23)CCO1 (single isomer, unassigned) [Example D50]	2.6 nM	30.1 nM	9 nM	30.7 nM
C[C@@H](c1nc(C(F)(F)F)cc2c(-c3cccc(C4(Cc5nncn5C)COC4)c3)n[nH]c12)N1CCNC(=O)C1 (single isomer, unassigned) [Example D51]	2.7 nM	15 nM	5.7 nM	19.6 nM
C[C@H](c1nc(C(F)(F)F)cc2c(-c3cccc(C4(Cc5nncn5C)COC4)c3)n[nH]c12)N1CCNC(=O)C1 (single isomer, unassigned) [Example D52]	10.1 nM	79.1 nM	31.9 nM	118 nM
C[C@@H](c1nc(C(F)(F)F)cc2c(-c3cccc(C4(Cc5nncn5C)COC4)c3)n[nH]c12)N1CCNCC1 (single isomer, unassigned) [Example D53]	3.2 nM	36.1 nM	11.8 nM	36.9 nM
C[C@H](c1nc(C(F)(F)F)cc2c(-c3cccc(C4(Cc5nncn5C)COC4)c3)n[nH]c12)N1CCNCC1 (single isomer, unassigned) [Example D54]	8.2 nM	61.7 nM	20.9 nM	80 nM
C[C@@H](c1nc(C(F)(F)F)cc2c(-c3cccc([C@H](c4nncn4C)C4CCC4)c3)n[nH]c12)N1CCNC(=O)C1 (single isomer, unassigned) [Example D88]	5.7 nM	34.1 nM	3.9 nM	35.2 nM
C[C@H](c1nc(C(F)(F)F)cc2c(-c3cccc([C@H](c4nncn4C)C4CCC4)c3)n[nH]c12)N1CCNC(=O)C1 (single isomer, unassigned) [Example D89]	11 nM	307 nM	20.9 nM	290 nM
C[C@@H](c1nc(C(F)(F)F)cc2c(-c3cccc(C4(Cc5nncn5C)COC4)c3)n[nH]c12)N1CC[C@H](F)C1 (single isomer, unassigned) [Example D97]	31.9 nM	230 nM	25 nM	139 nM
C[C@@H](c1nc(C(F)(F)F)cc2c(-c3cccc(C4(Cc5nncn5C)COC4)c3)n[nH]c12)N1CC[C@H](F)C1 (single isomer, unassigned) [Example D98]	46 nM	217 nM	25.5 nM	110 nM
C[C@H](CO)c1nc(C(F)(F)F)cc2c(-c3cccc([C@H](c4nncn4C)C4CCC4)c3)n[nH]c12 (single isomer, unassigned) [Example K3, (2ξ)-2-[3-{3-[(ξ)-cyclobutyl(4-methyl-4H-1,2,4-triazol-3-yl)methyl]phenyl}-5-(trifluoromethyl)-1H-pyrazolo[3,4-c]pyridin-7-yl]propan-1-ol]	4 nM	160 nM	11 nM	96.5 nM
C[C@@H](CO)c1nc(C(F)(F)F)cc2c(-c3cccc([C@H](c4nncn4C)C4CCC4)c3)n[nH]c12 (single isomer, unassigned) [Example K4, (2ξ)-2-[3-{3-[(ξ)-cyclobutyl(4-methyl-4H-1,2,4-triazol-3-yl)methyl]phenyl}-5-(trifluoromethyl)-1H-pyrazolo[3,4-c]pyridin-7-yl]propan-1-ol]	8.3 nM	207 nM	17.6 nM	156 nM
CC(CN)c1nc(C(F)(F)F)cc2c(-c3cccc(C4(Cc5nncn5C)COC4)c3)n[nH]c12 (single isomer, unassigned) [Example K6, (2ξ)-2-[3-(3-{3-[(4-methyl-4H-1,2,4-triazol-3-yl)methyl]oxetan-3-yl}phenyl)-5-(trifluoromethyl)-1H-pyrazolo[3,4-c]pyridin-7-yl]propan-1-amine]	11.3 nM	125 nM	26.5 nM	78.6 nM
CC(CN)c1nc(C(F)(F)F)cc2c(-c3cccc(C4(Cc5nncn5C)COC4)c3)n[nH]c12 (single isomer, unassigned) [Example K7, (2ξ)-2-[3-(3-{3-[(4-methyl-4H-1,2,4-triazol-3-yl)methyl]oxetan-3-yl}phenyl)-5-(trifluoromethyl)-1H-pyrazolo[3,4-c]pyridin-7-yl]propan-1-amine]	8 nM	94.9 nM	26.6 nM	97.8 nM
CC(O)c1nc(C(F)(F)F)cc2c(-c3cccc(C4(Cc5nncn5C)COC4)c3)n[nH]c12 (single isomer, unassigned) [Example K10, (1ξ)-1-[3-(3-{3-[(4-methyl-4H-1,2,4-triazol-3-yl)methyl]oxetan-3-yl}phenyl)-5-(trifluoromethyl)-1H-pyrazolo[3,4-c]pyridin-7-yl]ethan-1-ol]	23.5 nM	291 nM	45.1 nM	219 nM
CC(O)c1nc(C(F)(F)F)cc2c(-c3cccc(C4(Cc5nncn5C)COC4)c3)n[nH]c12 (single isomer, unassigned) [Example K11, (1ξ)-1-[3-(3-{3-[(4-methyl-4H-1,2,4-triazol-3-yl)methyl]oxetan-3-yl}phenyl)-5-(trifluoromethyl)-1H-pyrazolo[3,4-c]pyridin-7-yl]ethan-1-ol]	11.7 nM	199 nM	31.2 nM	119 nM
CC(CN)c1nc(C(F)(F)F)cc2c(-c3cccc([C@H](c4nncn4C)C4CCC4)c3)n[nH]c12 (single isomer, unassigned) [Example K14]	20.6 nM	244 nM	24.8 nM	195 nM
CC(CN)c1nc(C(F)(F)F)cc2c(-c3cccc([C@H](c4nncn4C)C4CCC4)c3)n[nH]c12 (single isomer, unassigned) [Example K15]	23.9 nM	452 nM	30.1 nM	263 nM
CC(N)c1nc(C(F)(F)F)cc2c(-c3cccc(C4(Cc5nncn5C)COC4)c3)n[nH]c12 (single isomer, unassigned) [Example K16, (1ξ)-1-[3-(3-{3-[(4-methyl-4H-1,2,4-triazol-3-yl)methyl]oxetan-3-yl}phenyl)-5-(trifluoromethyl)-1H-pyrazolo[3,4-c]pyridin-7-yl]ethan-1-amine]	15.7 nM	216 nM	32 nM	140 nM
